Source: patent US5374713A, “Peptide inhibitors of phospholipase A2 purified from inflammatory sites” (Teijin Limited, priority 1990, dated 1994)
Ends that are not written are not given here.

Key:
[1] = target: T1, phospholipase A2 from rat inflammatory sites (Rattus norvegicus, UniProt P14423); assay: Determination of inhibitory activity against phospholipase A2 (rat inflammatory sites); format: biochemical; settings: phosphatidylethanolamine substrate, pH 9.0, 37° C., 10 minutes
T1 construct: rat inflammatory sites (Chang et al., J. Biochem., 102, 147-154, 1987); from tissue
T1 sequence (P14423 22-146): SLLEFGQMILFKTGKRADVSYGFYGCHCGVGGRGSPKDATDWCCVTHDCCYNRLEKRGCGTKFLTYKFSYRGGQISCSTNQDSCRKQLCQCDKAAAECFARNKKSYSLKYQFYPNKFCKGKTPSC
Experimental: (§1) The activity-measuring system was prepared by adding distilled water to 100 mM Tris-HCl (ph 9.0), 4 mM calcium chloride, 0.1 mM phosphatidylethanolamine (2,000 dpm/nmol), and 10 μl sample to adjust the total volume to 240 μl, and finally 10 μl of 0.1 ng/μ1 phospholipase A2 was added. The phospholipases A2 used were from human inflammatory sites (the joint fluid from patients with rheumatoid arthritis) (Hara et al., J. Biochem., 104, 326-328, 1988), rat inflammatory sites (Chang et al., J. Biochem., 102, 147-154, 1987), and porcine pancreas (Boehringer Manheim Co.). Phosphatidylethanolamine was purified from Escherichia coli cultured in a medium to which acetic acid was added.
(§2) The reactions were conducted at 37° C. with stirring for 10 minutes. The termination of the reaction and the extraction of fatty acids generated were carried out by the Dole's method (Dole et al., J. Biol. Chem., 235, 2595-2599, 1960) and the extracted fatty acid was determined with a scintillation counter.
(§3) The lyophilyzed sample obtained in Example 1 was dissolved again in 50% acetone-0.1% trifluoroacetic acid to adjust the concentration to 10 mg/ml. The solution was further diluted stepwise with the same buffer and the inhibitory activity of phospholipase A2 from inflammatory sites was determined at individual concentrations.

[2] = target: T2, phospholipase A2 from human inflammatory sites (the joint fluid from patients with rheumatoid arthritis) (Homo sapiens, UniProt P14555); assay: Determination of inhibitory activity against phospholipase A2 (human inflammatory sites); format: biochemical; settings: phosphatidylethanolamine substrate, pH 9.0, 37° C., 10 minutes
T2 construct: from human inflammatory sites (the joint fluid from patients with rheumatoid arthritis); from tissue; host or cells: joint fluid from patients with rheumatoid arthritis
T2 sequence (P14555 21-144): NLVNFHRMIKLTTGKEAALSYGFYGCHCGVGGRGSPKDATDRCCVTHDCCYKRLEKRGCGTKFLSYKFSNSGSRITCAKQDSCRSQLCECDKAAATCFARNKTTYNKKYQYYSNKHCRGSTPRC
Experimental: as §1, §2, §3

## QKDAPDHQELNLDVSLQLPSR
[1]
  IC50: ~500 nM
[2]
  IC50: ~500 nM
